From US12257214B2, “Compositions and methods comprising deoxy-pentitols” (The Charlotte Mecklenburg Hospital Authority, priority 2021, dated 2025)
pIC50: −log10 of the molar value.

Assays:
Type in all cases: cell-based
[1] = tested on: normal human breast epithelial cells MCF7-10F; assay: Normal breast epithelial cell culture (FIG. 8); settings: 2-40 mM, 4 days
Method: 2-deoxyribitol was given in ascending doses of 2 mM (top middle panel), 5 mM (top right panel), 10 mM (bottom left panel), 20 mM (bottom middle panel), and 40 mM (bottom right panel). No significant differences were observed between the control and drug-treated cells at any dose.
In contrast, 2-deoxyribitol produced unnoticeable changes in cell culture of normal human myoblasts or differentiated myotubes (FIG. 7), indicating its low toxicity potential to normal cell populations. In this study, normal human myoblasts (HSKM cells) were treated with 2-deoxyribitol (Drug) for 3 days.

LS411N = assay: ATPlite cell IC50 screening, LS411N; settings: Homo sapiens, LS-411N, Cecum adenocarcinoma, ATPlite luminescence
Method: (§1) In brief, the cells were cultures in relevant medium and treated with a range of 9 doses of 2-deoxyribitol, from 10 mM, 5 mM, 2.5 mM, 1.25 mM, 0.62 mM, 0.31 mM, 0.08 mM, and 0.04 mM. Cells were diluted in the corresponding ATCC recommended medium and dispensed in a 384-well plate, depending on the cell line used, at a density of 100-6400 cells per well in 45 μl medium. For each used cell line the optimal cell density was used. The margins of the plate were filled with phosphate-buffered saline. Plated cells were incubated in a humidified atmosphere of 5% CO2 at 37° C. After 24 hours, 5 μl of compound dilution was added and plates were further incubated. At the end of experiment (t=end), 24 μl of ATPlite 1Step™ (PerkinElmer) solution was added to each well, and subsequently shaken for 2 minutes. After 10 minutes of incubation in the dark, the luminescence was recorded on an Envision multimode reader (PerkinElmer). IC50 was determined in comparison with the control samples. The cell lines tested and their corresponding disease model is indicated the left-most and middle columns, respectively. IC50 values are given in μM values in the right-most column. This screening was performed of a list of cancer cells to establish IC50 values for each of the cancer cell lines. This screening provides evidence for the potential of 2DR to treat many cancer types.

MOLT-4 = assay: ATPlite cell IC50 screening, MOLT-4; settings: Homo sapiens; MOLT-4, Adult T acute lymphoblastic leukemia; ATPlite luminescence
Method: as §1

MCF7 cells = assay: Mammosphere formation (FIG. 4)
Method: Cells were also treated with Vitamin C (VitC) at a concentration of 50 μM for 5 days (5d) and then returned to normal medium (NM) for 6 days (d6), without (lower left panel) or with 2-deoxyribitol (Drug, lower right panel). The formation of cancer mammospheres, considered to be cancer stem cell-rich population, can be seen in culture without Drug treatment, and with Vitamin C treatment only. Drug treatment greatly reduces to eliminates the formation of cancer mammospheres.
To examine mammosphere formation, MCF7 cells were grown for 11 days with or without 2-deoxyribitol (drug) treatment (FIG. 4, top panels). In addition, MCF7 cells were treated with Vitamin C at the concentration of 50 μM for 5 days and then returned to normal medium (“NM”) for 6 days (FIG. 4, lower panels).

MIA PaCa-2 = assay: ATPlite cell IC50 screening, MIA PaCa-2; settings: Homo sapiens; MIA PaCa-2, Pancreatic ductal adenocarcinoma; ATPlite luminescence
Method: as §1

HT-1080 = assay: ATPlite cell IC50 screening, HT-1080; settings: Homo sapiens; HT-1080, Fibrosarcoma; ATPlite luminescence
Method: as §1

RL95-2 = assay: ATPlite cell IC50 screening, RL95-2; settings: Homo sapiens; RL95-2, Endometrial adenosquamous carcinoma; ATPlite luminescence
Method: as §1

breast cancer T47D cells = assay: T47D cell growth
Method: Less than 50% of cells and 10% of cells were detected with the treatment of 10 mM and 50 mM 2-deoxyribitol, respectively.

DU4475 = assay: ATPlite cell IC50 screening, DU4475; settings: Homo sapiens, DU-4475; DU4475, Breast carcinoma; ATPlite luminescence
Method: as §1

LS 174T = assay: ATPlite cell IC50 screening, LS 174T; settings: Homo sapiens, LS174T, Colon adenocarcinoma, ATPlite luminescence
Method: as §1

ES-2 = assay: ATPlite cell IC50 screening, ES-2; settings: Homo sapiens; ES-2, Ovarian clear cell adenocarcinoma; ATPlite luminescence
Method: as §1

RT4 = assay: ATPlite cell IC50 screening, RT4; settings: Homo sapiens, RT-4; RT4, Bladder carcinoma; ATPlite luminescence
Method: as §1

HCT-15 = assay: ATPlite cell IC50 screening, HCT-15; settings: Homo sapiens; HCT-15, Colon adenocarcinoma; ATPlite luminescence
Method: as §1

SUP-T1 = assay: ATPlite cell IC50 screening, SUP-T1; settings: Homo sapiens; SUP-T1, Childhood T lymphoblastic lymphoma; ATPlite luminescence
Method: as §1

A-498 = assay: ATPlite cell IC50 screening, A-498; settings: Homo sapiens, A498; A-498, Renal cell carcinoma; ATPlite luminescence
Method: as §1

Daoy = assay: ATPlite cell IC50 screening, Daoy; settings: Homo sapiens, Medulloblastoma, ATPlite luminescence
Method: as §1

Jurkat E6.1 = assay: ATPlite cell IC50 screening, Jurkat E6.1; settings: Homo sapiens; Jurkat E6.1, Childhood T acute lymphoblastic leukemia; ATPlite luminescence
Method: as §1

PC-3 = assay: ATPlite cell IC50 screening, PC-3; settings: Homo sapiens; PC-3, Prostate carcinoma; ATPlite luminescence
Method: as §1

COLO 205 = assay: ATPlite cell IC50 screening, COLO 205; settings: Homo sapiens; COLO 205, Colon adenocarcinoma; ATPlite luminescence
Method: as §1

NCI-H460 = assay: ATPlite cell IC50 screening, NCI-H460; settings: Homo sapiens; NCI-H460, Large cell lung carcinoma; ATPlite luminescence
Method: as §1

SJCRH30 = assay: ATPlite cell IC50 screening, SJCRH30; settings: SJCRH30, Alveolar rhabdomyosarcoma; ATPlite luminescence
Method: as §1

HuTu 80 = assay: ATPlite cell IC50 screening, HuTu 80; settings: Homo sapiens, HuTu80; HuTu 80, Duodenal adenocarcinoma; ATPlite luminescence
Method: as §1

COLO 829 = assay: ATPlite cell IC50 screening, COLO 829; settings: Homo sapiens; COLO 829, Cutaneous melanoma; ATPlite luminescence
Method: as §1

BxPC-3 = assay: ATPlite cell IC50 screening, BxPC-3; settings: Homo sapiens; BxPC-3, Pancreatic ductal adenocarcinoma; ATPlite luminescence
Method: as §1

OCC[C@H](O)[C@H](O)CO [2-deoxyribitol]
growth inhibition or cell death of normal breast cells [1]: did not inhibit growth or cause cell death | pIC50 (LS411N): 2.16 | pIC50 (MOLT-4): 2.31 | number of mammospheres after Vitamin C pre-treatment (MCF7 cells; MCF7, Vitamin C 50 μM 5 days, then 6 day treatment with 2-deoxyribitol): decreased dramatically | formation of mammospheres (MCF7 cells; MCF7 grown 11 days, 5 mM): no spheres were seen | pIC50 (MIA PaCa-2): 2.31 | pIC50 (HT-1080): 2.36 | pIC50 (RL95-2): 2.19 | inhibiting cell growth (breast cancer T47D cells): had an effect on inhibiting cell growth | pIC50 (DU4475): 2.24 | pIC50 (LS 174T): 2.60 | pIC50 (ES-2): 2.06 | pIC50 (RT4): < 2.00 | pIC50 (HCT-15): 2.11 | pIC50 (SUP-T1): 2.51 | pIC50 (A-498): 2.06 | pIC50 (Daoy): 2.20 | pIC50 (Jurkat E6.1): 2.33 | pIC50 (PC-3): 2.43 | pIC50 (COLO 205): 2.34 | pIC50 (NCI-H460): 2.50 | pIC50 (SJCRH30): 2.35 | pIC50 (HuTu 80): 2.31 | pIC50 (COLO 829): 2.20 | pIC50 (BxPC-3): 2.11
